Reference: paper PMC9100673, “Acridine Based N-Acylhydrazone Derivatives as Potential Anticancer Agents: Synthesis, Characterization and ctDNA/HSA Spectroscopic Binding Properties” (Molecules, 2022)

Tests used:
[1] = molecular target: T1, human serum albumin (HSA) (Homo sapiens, UniProt P02768); experiment: HSA fluorescence quenching (steady-state fluorescence titration); assay type: binding; conditions: for KSV, Stern–Volmer quenching constant: HSA 4 μM, pH 7.4; for ΔH / ΔS: van't Hoff plot, 25–35 °C; for blue shift of HSA fluorescence emission maximum: λex 280 nm
T1 construct: purchased Sigma (St. Louis, MO, USA)
T1 sequence (P02768 25-609): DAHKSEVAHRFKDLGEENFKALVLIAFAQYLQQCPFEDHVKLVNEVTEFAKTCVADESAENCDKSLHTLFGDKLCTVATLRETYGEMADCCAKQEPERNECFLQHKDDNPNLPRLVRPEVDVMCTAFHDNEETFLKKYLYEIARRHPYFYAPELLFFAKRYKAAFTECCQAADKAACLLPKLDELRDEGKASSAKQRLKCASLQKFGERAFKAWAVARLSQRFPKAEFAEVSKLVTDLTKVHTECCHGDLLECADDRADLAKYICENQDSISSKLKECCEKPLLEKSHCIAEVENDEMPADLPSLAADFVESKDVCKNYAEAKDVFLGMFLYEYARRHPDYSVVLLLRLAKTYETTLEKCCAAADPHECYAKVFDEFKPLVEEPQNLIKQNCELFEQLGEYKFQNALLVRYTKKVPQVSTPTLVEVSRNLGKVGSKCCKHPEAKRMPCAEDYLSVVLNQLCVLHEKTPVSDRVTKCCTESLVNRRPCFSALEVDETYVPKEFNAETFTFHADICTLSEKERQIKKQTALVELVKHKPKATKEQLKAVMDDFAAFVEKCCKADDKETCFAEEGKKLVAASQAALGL
Method: Human serum albumin (HSA) emission spectra were recorded in the absence and presence of different amounts of acridine derivatives (3a–3d) at a range of 285 to 550 nm upon excitation at 280 nm. The emission maximum of fluorescence intensity of HSA was identified at 340 nm. […] The fluorescence intensity of HSA in the presence of the acridine derivatives decreases in the relation […], with decreases of 58%, 51%, 43% and 38%, respectively. Moreover, the reduction of fluorescence emission of HSA by derivatives 3a–3d was accompanied by an apparent change in the position of the maximum wavelength of the fluorescence emission, with a blue shift of 6 nm (3d) ≈ (3b) < 7 nm (3c) < 8 nm (3a).
The appearance of an isoactinic point at 430 nm might also indicate the existence of an equilibrium between bound and free drugs, with the presence of such an equilibrium possibly emphasizing the formation of the drug–protein complex. Fluorescence quenching can be divided into the two processes of dynamic and static quenching. In dynamic quenching, the fluorophore and quencher are in contact in an excited state, increasing the temperature and resulting in faster diffusion and a higher frequency of collision, which in turn increases the quenching constant. In comparison, static quenching is typical in complexes formed between the fluorophore and quencher in a ground state in which the increasing temperature weakens the stability of the complex. Quantitative analysis was performed by using the Stern–Volmer Equation (1):(1) F0/F=1+KSVQ=1+Kqτ0Q, where F0 and F represent the fluorescence intensity of HSA in the absence and presence of acridine derivatives, respectively. KSV is the Stern–Volmer dynamic quenching constant which was determined from the plot of relative intensity F0/F of fluorescence vs. the concentration of the acridine derivative. Kq is the quenching rate constant of biomolecules, which is known to be around 2.0 × 10^10 M^−1 s^−1, and τ0 is the average lifetime of the fluorophore in the absence of the quencher, with a typical value equal to around 10^−8 for biomolecules. The quenching constant KSV of derivatives 3a–3d were of 10^5 M^−1. The KSV values recorded for derivatives 3a and 3b decreased at increasing temperatures, while those of derivatives 3c and 3d increased at increasing temperatures. The increased KSV values at increasing temperature in the presence of derivative 3c may indicate that the binding forces are mainly hydrophobic (endothermic apolar interactions are strengthened at increasing temperatures). Additionally, the Kq values obtained for HSA of 10^13 M^−1 s^−1 are greater than the limiting diffusion rate constant of diffusional quenching for biopolymers (2.0 × 10^10 M^−1 s^−1).
In order to evaluate the magnitude of the interaction, other parameters such as the binding constant ( Kb) and the number of binding sites (n) on the drug–HSA complex were calculated at three temperatures using Equation (2):(2) logF0−F/F=logKb+nlogQ, where F0 and F are the fluorescence intensity of the fluorophore (HSA) in the absence and presence of the quencher-acridine derivative, and [Q] is the quencher concentration. The values of Kb and n were determined using the linear regression of a plot of log(F0 − F/F) to log[Q] (Figure S3). […] Since the values of Kb were 10^5 M^−1 (3a–3c) or 10^4 M^−1 (3d), it would therefore be suitable for distribution in the plasma in vivo.
Based on the Kb dependency on temperature, it is, therefore, possible to analyse the temperature-dependent thermodynamic parameters which can be considered as responsible for the formation of a complex. […]

[2] = molecular target: hTopo IIα (Homo sapiens, UniProt P11388); experiment: Topo IIα kDNA decatenation assay; assay type: biochemical; conditions: 25, 50 and 100 μM
Sequence of hTopo IIα (P11388 whole entry): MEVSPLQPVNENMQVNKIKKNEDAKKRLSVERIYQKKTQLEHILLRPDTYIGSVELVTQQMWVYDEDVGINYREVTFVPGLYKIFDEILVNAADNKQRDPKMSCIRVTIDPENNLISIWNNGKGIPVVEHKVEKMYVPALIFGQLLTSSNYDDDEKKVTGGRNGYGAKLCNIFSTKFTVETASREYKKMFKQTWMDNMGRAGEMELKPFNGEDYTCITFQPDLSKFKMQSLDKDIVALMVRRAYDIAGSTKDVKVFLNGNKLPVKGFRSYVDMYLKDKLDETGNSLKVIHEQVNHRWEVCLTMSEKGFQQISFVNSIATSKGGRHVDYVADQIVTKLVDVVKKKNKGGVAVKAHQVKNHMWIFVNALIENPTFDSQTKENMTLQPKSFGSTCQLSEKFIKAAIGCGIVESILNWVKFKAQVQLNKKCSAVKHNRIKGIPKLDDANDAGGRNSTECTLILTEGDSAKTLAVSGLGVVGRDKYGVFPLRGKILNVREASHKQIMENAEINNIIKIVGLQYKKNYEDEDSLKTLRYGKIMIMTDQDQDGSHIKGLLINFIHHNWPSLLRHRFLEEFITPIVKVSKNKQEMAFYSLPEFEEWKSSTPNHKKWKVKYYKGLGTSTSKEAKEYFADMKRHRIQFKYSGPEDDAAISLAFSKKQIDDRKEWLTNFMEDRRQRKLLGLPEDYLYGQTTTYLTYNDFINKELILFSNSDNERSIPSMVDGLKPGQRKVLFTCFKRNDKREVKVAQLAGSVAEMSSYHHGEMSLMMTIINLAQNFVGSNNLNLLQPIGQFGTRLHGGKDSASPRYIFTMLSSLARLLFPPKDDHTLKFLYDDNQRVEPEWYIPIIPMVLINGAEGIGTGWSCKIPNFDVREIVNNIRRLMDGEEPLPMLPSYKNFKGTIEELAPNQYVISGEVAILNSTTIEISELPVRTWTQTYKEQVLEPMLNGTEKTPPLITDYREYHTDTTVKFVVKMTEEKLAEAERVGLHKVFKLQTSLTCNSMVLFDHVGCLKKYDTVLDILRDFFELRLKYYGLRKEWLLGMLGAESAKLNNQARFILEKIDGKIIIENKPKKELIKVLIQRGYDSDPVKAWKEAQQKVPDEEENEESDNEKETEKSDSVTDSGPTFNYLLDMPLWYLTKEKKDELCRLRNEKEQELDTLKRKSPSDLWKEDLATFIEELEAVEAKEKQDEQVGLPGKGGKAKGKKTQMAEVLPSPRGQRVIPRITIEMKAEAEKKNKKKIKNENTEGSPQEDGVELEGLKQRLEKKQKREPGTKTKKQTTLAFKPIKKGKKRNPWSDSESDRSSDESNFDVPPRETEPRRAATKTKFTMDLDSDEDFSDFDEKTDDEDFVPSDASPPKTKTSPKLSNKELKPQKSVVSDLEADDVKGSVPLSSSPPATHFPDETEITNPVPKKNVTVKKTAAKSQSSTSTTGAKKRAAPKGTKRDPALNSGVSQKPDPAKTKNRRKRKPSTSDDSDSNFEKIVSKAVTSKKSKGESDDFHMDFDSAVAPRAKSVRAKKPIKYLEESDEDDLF
Method: The Topo IIα enzyme catalysed the decatenation of catenated kDNA to closed circular decatenated kDNA. In one specific case, linear (L) and nicked-opened (NC) forms of DNA could by observed. […] The m-Amsacrine (AMSA) (lane 2) was the observed band for catenated DNA.
Figure 12 The result of Topo I/IIα activity tests in the presence of derivatives 3a–3d. (A) Electrophoretogram for inhibition relaxation activity of hTopo I (2.5 U) by derivatives 3a–3d in concentrations of 25, 50 and 100 μM (lane 5–16), substrate-free SC pBR322 (0.5 μg) (lane 4), camptothecin (CPT, lane 2) and plasmid+hTopo I control (lane 3). (NOC—nicked-opened DNA form; R—relaxed DNA form; SC—supercoiled DNA form). (B) Electrophoretogram for inhibition decatenation activity of hTopo IIα (0.5 U) by derivatives 3a–3d in concentrations of 25, 50 and 100 μM (lane 5–16), substrate-free catenated kinetoplast DNA (cat kDNA) (0.5 μg) (lane 4), m-Amsacrine (AMSA, lane 2) and plasmid +hTopo IIα control (lane 3). (decat DNA—decatenated DNA; NC—nicked circular DNA form; L—linear DNA form).

[3] = test system: A549 cells; experiment: Colony forming (clonogenic) assay; assay type: cell-based, human; conditions: 48 h treatment, 7 days cultivation; for effect on ability of A549 cells to form new colonies: 25 μM; for reduction of clonogenic ability of A549 cells vs control: 50 μM
Method: To assess drug efficacy and prevent treatment failure, it is important to observe whether cancer cells may proliferate during the interval between treatments. The clonogenic assay evaluates the efficacy of new drugs by observation of reduced repopulation of cancer cells and cell survival after treatment. This assay is important to select eligible anticancer drug candidates. The clonogenic survival was analysed after treatment of A549 cells with the compounds 3a and 3c. DMSO (0.5%) was used as solvent control. A549 cells were treated with 3a and 3c in concentrations of 25 and 50 μM for 48 h. The cells were then counted, and 500 viable cells per well were seeded and cultivated for another seven days under standard conditions.
For the colony forming assay, floating and adherent cells were harvested together 48 h after treatment with the studied compounds (25 and 50 µM). The cells were then counted using a Bürker chamber with eosin staining and 500 viable cells per well were seeded in 6-well plates. After seven days of cultivation under standard conditions, the cells in the plates were fixed and stained with 1% methylene blue dye in methanol. Visualized colonies were scanned and counted by Image software, and the results were evaluated as percentages of the untreated control. The results are presented as the average percentage of colonies from three independent experiments.

SMILES | Kq, bimolecular quenching rate constant ([1]; 25 °C) [M⁻¹ s⁻¹] | n, number of binding sites ([1]; 25 °C) | ΔG ([1]; 25 °C) [kcal/mol] | KSV, Stern–Volmer quenching constant ([1]; 25 °C) [M⁻¹] | Kq, bimolecular quenching rate constant ([1]; 30 °C) [M⁻¹ s⁻¹] | n, number of binding sites ([1]; 30 °C) | ΔG ([1]; 30 °C) [kcal/mol] | KSV, Stern–Volmer quenching constant ([1]; 30 °C) [M⁻¹] | Kq, bimolecular quenching rate constant ([1]; 35 °C) [M⁻¹ s⁻¹] | n, number of binding sites ([1]; 35 °C) | ΔG ([1]; 35 °C) [kcal/mol] | KSV, Stern–Volmer quenching constant ([1]; 35 °C) [M⁻¹] | ΔH [1] [kcal/mol] | ΔS [1] | KSV for the HSA-3a complex ([1]; without site marker) [M⁻¹] | Kb for the HSA-3a complex ([1]; without site marker) [M⁻¹] | blue shift of HSA fluorescence emission maximum [1] [nm] | inhibition of decatenation activity of Topo IIα [2] | effect on ability of A549 cells to form new colonies [3] | reduction of clonogenic ability of A549 cells vs control [3] [%]
O=C(N/N=C/c1cccc2cc3ccccc3nc12)c1ccccc1 [3a, N′-[(E)-(Acridin-4-yl)methylidene]benzohydrazide] | 2.67e+13 | 1.068 | -7.918 | 267000 | 2.68e+13 | 1.054 | -7.878 | 268000 | 2.61e+13 | 1.023 | -7.837 | 261000 | -10.33 | −33.80 ×10^−3 kJ mol^−1 K^−1 | 267000 | 610000 | 8 | No obvious inhibitory effects | did not significantly reduce | 72
O=C(N/N=C/c1cccc2cc3ccccc3nc12)c1ccc(F)cc1 [3b, N′-[(E)-Acridin-4-ylmethylidene]-4-fluorobenzohydrazide] | 1.51e+13 | 1.079 | -7.66 | 151000 | 1.57e+13 | 1.061 | -7.61 | 157000 | 1.37e+13 | 1.039 | -7.557 | 137000 | -10.74 | −43.24 ×10^−3 kJ mol^−1 K^−1 | – | – | ~6 | No obvious inhibitory effects | – | –
O=C(N/N=C/c1cccc2cc3ccccc3nc12)c1ccc(Cl)cc1 [3c, N′-[(E)-Acridin-4-ylmethylidene]-4-chlorobenzohydrazide] | 2.29e+13 | 0.888 | -6.427 | 229000 | 2.48e+13 | 0.925 | -7.108 | 248000 | 2.62e+13 | 1.030 | -7.787 | 262000 | 34.07 | 568.32 ×10^−3 kJ mol^−1 K^−1 | – | – | 7 | partial inhibition | did not significantly reduce | 74
O=C(N/N=C/c1cccc2cc3ccccc3nc12)c1ccc(Br)cc1 [3d, N′-[(E)-Acridin-4-ylmethylidene]-4-bromobenzohydrazide] | 1.16e+13 | 1.052 | -7.249 | 116000 | 2.06e+13 | 0.917 | -6.828 | 206000 | 2.42e+13 | 0.846 | -6.408 | 242000 | -32.361 | −352.39 ×10^−3 kJ mol^−1 K^−1 | – | – | 6 | partial inhibition | – | –
